In paper PMC9465710, “Identification of a BAZ2A-Bromodomain Hit Compound by Fragment Growing” (ACS Medicinal Chemistry Letters, 2022):

Key:
BAZ2A bromodomain [1] = target: T1, BAZ2A bromodomain (Homo sapiens, UniProt Q9UIF9); experiment: AlphaScreen competition binding assay (BAZ2A bromodomain binding to acetylated peptide); details: AlphaScreen dose-response
T1 construct: made in house
T1 sequence (Q9UIF9 1793-1897 limits assumed): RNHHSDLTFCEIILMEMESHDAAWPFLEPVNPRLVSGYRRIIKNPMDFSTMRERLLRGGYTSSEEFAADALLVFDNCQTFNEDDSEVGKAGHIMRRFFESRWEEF
Description: The 36 selected molecules were tested by AlphaScreen at single doses in duplicate. Six molecules (compounds 8, 9, 11, 14, 18, and 25) decreased binding of BAZ2A bromodomain to the acetylated peptide by at least 50% when tested at 500 μM. […]
AlphaScreen assay was conducted as detailed in [11]. […]

BAZ2A bromodomain [2] = target: T1, BAZ2A bromodomain; experiment: as above; details: single dose 100 μM; IC50 not determined; read-out: Residual activity when tested in single dose
BAZ2A = system: BAZ2A; set-up: method as in PMID 25799074, PMID 25719566; details: cited from earlier work

Row | IC50 (BAZ2A bromodomain [1]) | SMILES | further results
1 | 12.5 ± 0.4 µM | CC(=O)c1c(C)[nH]c(-c2csc(N3CCNCC3)n2)c1CCC(C)C [Compound 79] | 
2 | 42.9 ± 4.6 µM | CCc1c(-c2csc(N3CCN(Cc4cn(CC(N)=O)nn4)CC3)n2)[nH]c(C)c1C(C)=O [Compound 88] | 
3 | 36.5 ± 4.1 µM | CCc1c(-c2csc(N3CCNCC3C(=O)NC3(c4ncccc4F)CC3)n2)[nH]c(C)c1C(C)=O (stereo not shown) [Compound 100] | 
4 | 10.6 ± 0.2 µM | CCc1c(-c2csc(N3CCNCC3C(=O)NC3(Cc4ccccc4Br)CC3)n2)[nH]c(C)c1C(C)=O (stereo not shown) [Compound 102] | 
5 | 33.2 ± 0.3 µM | CCc1c(-c2csc(N3CCNCC3C(=O)NCCc3cc4ccccc4[nH]3)n2)[nH]c(C)c1C(C)=O (stereo not shown) [Compound 105] | 
6 | 14.1 ± 0.2 µM | CCc1c(-c2csc(N3CCNCC3C(=O)NCC(F)(F)F)n2)[nH]c(C)c1C(C)=O (stereo not shown) [Compound 107] | 
7 | 35.1 ± 0.2 µM | CCc1c(-c2csc(N3CCNCC3C(=O)NCC(C)(C)CC)n2)[nH]c(C)c1C(C)=O (stereo not shown) [Compound 108] | 
8 | 31.3 ± 0.7 µM | CCc1c(-c2csc(N3CCNCC3C(=O)NCCCCO)n2)[nH]c(C)c1C(C)=O (stereo not shown) [Compound 109] | 
9 | 22 ± 2.3 µM | CCc1c(-c2csc(N3CCNCC3C(=O)NCC(N)=O)n2)[nH]c(C)c1C(C)=O (stereo not shown) [Compound 110] | 
10 | 11 ± 0.2 µM | CCc1c(-c2csc(N3CCNCC3C(=O)NCCC(F)(F)F)n2)[nH]c(C)c1C(C)=O (stereo not shown) [Compound 111] | 
11 | 42 ± 5.2 µM | CCc1c(-c2csc(N3CCNCC3C(=O)NC(CO)CO)n2)[nH]c(C)c1C(C)=O (stereo not shown) [Compound 112] | 
12 | 14 ± 0.3 µM | CCc1c(-c2csc(N3CCNCC3C(=O)NCC(C)(C)C)n2)[nH]c(C)c1C(C)=O (stereo not shown) [Compound 113] | 

More lines, now with the values behind:

Row | SMILES | IC50 (BAZ2A bromodomain [1]) | further results
13 | CC(=O)c1c(C)[nH]c(-c2csc(N3CCNCC3)n2)c1CCC(F)(F)F [Compound 77] | 38.9 ± 2 µM | 
14 | CC(=O)c1c(C)[nH]c(-c2csc(N3CCNCC3)n2)c1C1CCCC1 [Compound 78] | 40.1 ± 3.4 µM | 
15 | Cc1[nH]c(-c2csc(N3CCNCC3)n2)c2c1C(=O)CCC2 [Compound 80] | 11.4 ± 0.3 µM | 
16 | Cc1[nH]c(-c2csc(N3CCNCC3)n2)c2c1C(=O)CC(C)(C)C2 [Compound 81] | 11.8 ± 0.3 µM | 
17 | Cc1[nH]c(-c2csc(N3CCNCC3)n2)c2c1C(=O)CCC2(C)C [Compound 82] | 44.6 ± 5.6 µM | 
18 | Cc1[nH]c(-c2csc(NC(=N)N)n2)c2c1C(=O)CCC2 [Compound 83] | 11 ± 0.2 µM | 
19 | Cc1[nH]c(-c2csc(NC(=N)N)n2)c2c1C(=O)CC(C)(C)C2 [Compound 84] | 29.2 ± 0.3 µM | 
20 | CCc1c(-c2csc(N3CCN(Cc4cc5n(n4)CCC5)CC3)n2)[nH]c(C)c1C(C)=O [Compound 86] | > 100 µM | 
21 | CCc1c(-c2csc(N3CCN(CC4CCN(CC)CC4)CC3)n2)[nH]c(C)c1C(C)=O [Compound 87] | 46.6 ± 2.5 µM | 
22 | CCc1c(-c2csc(N3CCN(Cc4cnn5c4OCCC5)CC3)n2)[nH]c(C)c1C(C)=O [Compound 89] |  | remaining binding at 100 µM (BAZ2A bromodomain [2]): > 50%
23 | CCc1c(-c2csc(N3CCN(Cc4ccsc4S(N)(=O)=O)CC3)n2)[nH]c(C)c1C(C)=O [Compound 90] |  | remaining binding at 100 µM (BAZ2A bromodomain [2]): > 50%
24 | CCc1c(-c2csc(N3CCN(Cc4cc(S(N)(=O)=O)co4)CC3)n2)[nH]c(C)c1C(C)=O [Compound 91] |  | remaining binding at 100 µM (BAZ2A bromodomain [2]): > 50%
25 | CCc1c(-c2csc(N3CCN(Cc4n[nH]cc4C)CC3)n2)[nH]c(C)c1C(C)=O [Compound 92] | 13.1 ± 0.9 µM | 
26 | CCc1c(-c2csc(N3CCN(Cc4c[nH]c(=O)[nH]c4=O)CC3)n2)[nH]c(C)c1C(C)=O [Compound 93] |  | remaining binding at 100 µM (BAZ2A bromodomain [2]): > 50%
27 | CCc1c(-c2csc(N3CCN(Cc4cnc(N)nc4)CC3)n2)[nH]c(C)c1C(C)=O [Compound 94] |  | remaining binding at 100 µM (BAZ2A bromodomain [2]): > 50%
28 | CCc1c(-c2csc(N3CCN(Cc4c[nH]c5ncncc45)CC3)n2)[nH]c(C)c1C(C)=O [Compound 95] | 12.9 ± 2 µM | 
29 | CCc1c(-c2csc(N3CCN(Cc4conc4COC)CC3)n2)[nH]c(C)c1C(C)=O [Compound 96] | 85.1 ± 6.8 µM | 
30 | CCc1c(-c2csc(N3CCN(Cc4ccnn4CC(C)C)CC3)n2)[nH]c(C)c1C(C)=O [Compound 97] | 49.3 ± 5.7 µM | 
31 | Cc1c[nH]nc1CN1CCN(c2nc(-c3[nH]c(C)c4c3CCCC4=O)cs2)CC1 [Compound 98] | 12.6 ± 1.4 µM | 
32 | Cc1[nH]c(-c2csc(N3CCN(Cc4c[nH]c5ncncc45)CC3)n2)c2c1C(=O)CCC2 [Compound 99] | 10.9 ± 0.2 µM | 
33 | CCc1c(-c2csc(N3CCNCC3C(=O)NCc3ncoc3C(C)C)n2)[nH]c(C)c1C(C)=O (stereo not shown) [Compound 101] |  | remaining binding at 100 µM (BAZ2A bromodomain [2]): > 50%
34 | CCc1c(-c2csc(N3CCNCC3C(=O)NC3CCC(C(N)=O)CC3)n2)[nH]c(C)c1C(C)=O (stereo not shown) [Compound 103] |  | remaining binding at 100 µM (BAZ2A bromodomain [2]): > 50%
35 | CCc1c(-c2csc(N3CCNCC3C(=O)NCC3CC4(CCC4)C3)n2)[nH]c(C)c1C(C)=O (stereo not shown) [Compound 106] |  | remaining binding at 100 µM (BAZ2A bromodomain [2]): > 50%
36 | CCc1c(-c2csc(N3CCNCC3C(=O)NCC3CC(C)C3)n2)[nH]c(C)c1C(C)=O (stereo not shown) [Compound 114] |  | remaining binding at 100 µM (BAZ2A bromodomain [2]): > 50%
37 | CCCOc1ccn2c(C(C)=O)cc(-c3ccccc3S(C)(=O)=O)c2c1 [GSK2801] |  | affinity for BAZ2A (in words) (BAZ2A): very high nanomolar range
